One assay has as its target T1, Zebrafish VDRβ (Danio rerio, UniProt Q1L673).
T1 sequence (Q1L673 1-422): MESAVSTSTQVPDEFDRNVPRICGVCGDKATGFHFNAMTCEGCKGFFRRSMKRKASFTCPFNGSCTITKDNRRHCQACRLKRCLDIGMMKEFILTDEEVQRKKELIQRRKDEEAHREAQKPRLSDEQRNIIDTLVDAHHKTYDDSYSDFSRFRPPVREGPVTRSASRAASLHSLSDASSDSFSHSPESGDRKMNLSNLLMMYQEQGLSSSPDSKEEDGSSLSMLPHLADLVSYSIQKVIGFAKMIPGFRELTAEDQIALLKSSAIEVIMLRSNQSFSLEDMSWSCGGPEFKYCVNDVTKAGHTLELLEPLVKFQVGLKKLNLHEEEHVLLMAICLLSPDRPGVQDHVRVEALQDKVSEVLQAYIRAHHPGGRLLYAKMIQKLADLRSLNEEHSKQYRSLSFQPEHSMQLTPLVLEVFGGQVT
In words: Competitive ligand binding assay ([3H]-1,25D3 displacement). Also on record: 89.7 ng/well of full-length pSG5-VDR was co-transfected; expressed in transfected cells; host or cells: COS7. The conditions noted are these: lysate with VDR and human RXRWT; 4 nM [3H]-1,25D3; 18 hours at 4°C; Cheng-Prusoff; mean ± SEM. How it is done:
(§1) Recombinant VDR and human RXRWT lysates were prepared from transfected COS7 cells (American Type Culture Collection #CRL-1651) as described in detail previously. Lysates were diluted 10-fold in ice-cold assay buffer (10 mM Tris HCl, 150 mM KCl, 1 mM EDTA, 0.3 mM ZnCl2, 5 mM DTT, and 1x protease inhibitor cocktail (100 μM AEBSF, 80 nM aprotinin, 5 μM bestatin, 1.5 μM E-64 (for cysteine proteases), 2 μM leupeptin, 1 μM pepstatin A), pH 7.5). […] Reactions were shaken to mix and incubated for 18 hours at 4°C. Bound and free ligand were separated with the addition of 80 μL of ice-cold separation buffer (2.5% (w/v) activated charcoal, 0.5% (w/v) dextran, 100 mM Na2HPO4, 39 mM NaH2PO4, 150 mM NaCl, 15 mM NaN3, 10% gelatin, pH 7.0), and incubated at 4°C for 15 minutes with shaking every 5 minutes. Reactions were centrifuged at 5,000 x g for 5 minutes at 4°C, and 200 μL of the supernatant containing the VDR-bound ligands was removed for scintillation counting.
(§2) Total binding was determined using lysate from cells transfected with VDR, and nonspecific binding was determined using lysate from cells transfected with the empty pSG5 vector. Specific binding was determined by subtracting non-specific binding counts from the total binding counts.

The next assay addresses T2, Skate VDR (Leucoraja erinacea, UniProt A0A088GDQ7).
T2 sequence (A0A088GDQ7 1-434): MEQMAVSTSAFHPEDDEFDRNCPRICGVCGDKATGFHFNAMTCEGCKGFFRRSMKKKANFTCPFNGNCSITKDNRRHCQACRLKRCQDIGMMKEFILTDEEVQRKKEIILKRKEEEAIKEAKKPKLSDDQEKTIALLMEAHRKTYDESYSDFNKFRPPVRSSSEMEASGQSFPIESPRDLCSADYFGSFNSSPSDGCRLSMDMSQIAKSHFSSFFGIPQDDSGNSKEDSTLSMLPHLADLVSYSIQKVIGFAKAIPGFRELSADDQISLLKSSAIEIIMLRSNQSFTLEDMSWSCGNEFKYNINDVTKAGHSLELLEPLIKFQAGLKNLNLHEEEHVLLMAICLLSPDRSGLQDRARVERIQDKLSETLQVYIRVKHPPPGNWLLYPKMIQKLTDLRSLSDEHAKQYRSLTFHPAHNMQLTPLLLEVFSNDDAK
T2 sequence (P19793 1-462 partner): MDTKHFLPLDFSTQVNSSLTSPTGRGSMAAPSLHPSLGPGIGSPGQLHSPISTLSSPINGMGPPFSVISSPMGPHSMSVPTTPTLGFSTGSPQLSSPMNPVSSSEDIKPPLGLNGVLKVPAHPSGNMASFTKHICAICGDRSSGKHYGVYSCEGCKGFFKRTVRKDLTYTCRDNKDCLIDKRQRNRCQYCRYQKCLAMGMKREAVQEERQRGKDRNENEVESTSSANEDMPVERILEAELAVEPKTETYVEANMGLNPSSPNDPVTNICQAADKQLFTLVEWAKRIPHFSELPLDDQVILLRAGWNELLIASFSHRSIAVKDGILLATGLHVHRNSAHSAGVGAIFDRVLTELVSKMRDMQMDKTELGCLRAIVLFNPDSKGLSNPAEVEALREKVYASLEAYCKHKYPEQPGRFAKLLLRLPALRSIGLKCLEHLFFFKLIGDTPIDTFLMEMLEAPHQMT
The description is as above. The conditions noted are these: lysate with VDR and human RXRWT; 4 nM [3H]-1,25D3; 18 hours at 4°C; Cheng-Prusoff; mean ± SEM. How it is done: as §1, §2

In general, Ki refers to the dissociation constant of the complex between target and ligand, obtained from inhibition or displacement. Higher therefore signals a looser hold on the target. Consider `C[C@H](CCC(=O)O)[C@H]1CC[C@H]2[C@@H]3CC[C@@H]4C[C@H](O)CC[C@]4(C)[C@H]3CC[C@]12C` [LCA, 5β-cholanic acid-3α-ol], for which the Ki worked out at 6.7 ± 1.9 µM on Zebrafish VDRβ and 6.7 ± 2.1 µM at Skate VDR.
